Reference: patent US10422787B2, “System and method for single molecule detection” (ARIZONA BOARD OF REGENTS on behalf of ARIZONA STATE …, priority 2015, dated 2019)

Assays:
Assay type in all cases: binding
[1] = test system: cyclic RGD peptide; experiment: STM break-junction measurement, Pd probe and substrate functionalized with cyclic RGD peptide; settings: for event frequency, of all retractions: 10 nM protein, Vt=0.2V
Experimental: A Pd wire probe, etched to a sharp point and insulated to within a few hundred nm of its apex was used in an Agilent PicoSPM together with a Pd-coated substrate as described elsewhere. […] Probes and substrates were functionalized with cyclic RGD peptide (inset FIG. 14B) as described in Methods. Measurements were carried out in 1 mM phosphate buffer (pH=7.4) with the potential of the substrate controlled at a voltage Vr with respect to an Ag/AgCl reference. […] Integrin itself is electrochemically-inert, but the Pd surface has a rich electrochemistry. Cyclic voltammetry of a Pd surface functionalized with cyclic RGD peptide is shown in FIG. 14B, where a prominent cathodic peak (“HA”) is associated with hydrogen adsorption. […] In order to avoid both this cathodic peak and the onset of Pd oxidation at positive potentials, both electrodes were kept at potentials between 0 and 0.5V vs Ag/AgCl. The STM gap was set to an initial current of 4 pA ([…] conductance at Vt=0.2V, corresponding to a distance, Z0, of about 2 nm) and the probe was then slowly (0.17 nm/s) retracted. The tunnel current decayed rapidly (˜0.2 nm decay length—inset in FIG. 14E) in buffer alone. […] Many current points for αvβ3, exceed 0.1 nA (i.e., conductances >0.5 nS) at distances Z0+ΔZ>3 nm (FIG. 15A). Clearly these currents cannot arise from a tunneling process with β˜0.87 Å^−1 for which G0·e^−βx yields values smaller than 10^−16 S.
Table 1 summarizes the frequency with which these large current pulses are observed in STM measurements, showing also the effect of increasing bias. Large current events are barely seen below 0.1V, their frequency rising with increasing bias above this threshold. The experiments were repeated without a reference electrode, finding essentially identical results over the range of 0.1 to 0.5V (Table 1) presumably because the large-area substrate used in the STM experiments serves to stabilize surface potential somewhat.
The fraction in parenthesis corresponds to events that overflowed the current limit of the amplifier (11 nA). 0.5V bias approaches the potential for surface oxide formation of the Pd, but no significant oxidation currents were observed.
Functionalizing STM probes and substrates: The STM probes were etched from a 0.25 mm Pd wire (California Fine Wires) by an AC electrochemical etching method, and then insulated with high-density polyethylene, leaving an open apex of a few tens of nanometers in diameter. Before use, the probes were tested in 1 mM phosphate buffer (pH=7.4) at 0.5 V bias to ensure that the leakage current was <1 pA. For functionalization, the probe was gently cleaned using ethanol and water, respectively, and then dried with nitrogen flow. The probe was immersed in a 0.5 mg/mL peptide solution for ˜20 h. After that, the probe was taken out, rinsed with water, dried with nitrogen gas, and used immediately. Palladium substrates were prepared by depositing a 100 nm palladium film onto a 10 nm titanium adhesion layer coated onto a 750 μm thick silicon wafer using an electron-beam evaporator (Lesker PVD 75). The substrate was annealed with a hydrogen flame immediately before being functionalized by the same method as that for probe. Fourier transform infrared (FTIR) spectroscopy was used to characterize the functionalization. Pd substrates were also treated by UV- Ozone cleaner and H2 gas reduction (to remove PdO).
STM Measurements: Break junction measurements were carried out with a PicoSPM scanning probe microscope (Agilent Technologies). The Teflon liquid cells were cleaned in Piranha solution and then sonicated in Milli-Q water three times (Note that: the Piranha is highly corrosive and must be handled with extreme care). The current set point was 4 pA. Different sample bias was applied to the substrate as required. For better surface charge control, an Ag/AgCl with a salt bridge (10 mM KCl) was connected to the substrate. […]

[2] = test system: cyclic RGD peptide; experiment: STM experiment, gold probe functionalized with RGD peptide over bare gold substrate; settings: 100 nM protein, starting gap 2.7 nm
Text: Accordingly, in some embodiments, functionalizing just one of a pair of electrodes generates a unique electrical recognition signal for a corresponding molecule(s). To do this, a scanning tunneling microscope (STM) was used (see STM, FIG. 5A), where a gold probe 51 was functionalized with the RGD peptide 53 via the chemical interaction between the cysteine residue and the gold. The probe was positioned at a set point bias (V) and current (I) such that the apex of the probe was held approximately 2.7 nm above a bare gold substrate, 52. As the probe was pulled away an extra distance ΔZ from the surface, a decaying current could be observed during some of the experiments (e.g., feature 57 in FIG. 5B). However, in the absence of the αVβ3 integrin, no other features were observed, even if fairly high concentrations (e.g., 100 nM) of a protein such as BSA were added to the solution in the STM. Once 100 nM αVβ3 integrin 56 was added to the solution, a new feature appeared as a current peak away from the origin 58 in FIG. 5B.
In contrast to conventional tunneling signals, these signals peak when the probe is some distance away from the surface, signifying that the probe has captured a conductive particle.

[3] = test system: cyclic RGD peptide; experiment: Nanopore (approximately 12 nm) junction device functionalized with cyclic RGD peptide
Experimental: Accordingly, in some embodiments, the background signal corresponds to the number of molecules adsorbed on the electrodes. This can be substantiated by collecting signals from a device small enough to allow only one integrin molecule to be trapped. In such a device, experiments were performed where the electrode edges were exposed by drilling a nanopore of approximately 12 nm diameter through the junction device. The electrodes were functionalized again with the cyclic RGD peptide. […] However, when 1 nM αVβ3 integrin is added a signal is generated (FIG. 11). […] This is because there is room for only one molecule at a time in the device, and this confirms that, in some embodiments, the background current arises from adsorption of many molecules.

[4] = Bias 0.1 V, Reference Ag/AgCl (0V)
[5] = Bias 0.2 V, Reference Ag/AgCl (0V)
[6] = Bias 0.5 V, Reference Ag/AgCl (0V)
[7] = Bias 0.5 V, Reference None (substrate floating)
[8] = many current points, at distances Z0+ΔZ>3 nm

Substance | event frequency, of all retractions [1] | fraction of events that overflowed the current limit of the amplifier (11 nA) [1, 4] | fraction of retractions that showed large current events [1, 4] | fraction of events that overflowed the current limit of the amplifier (11 nA) ([1]; Bias 0.1 V, Reference None) | fraction of retractions that showed large current events ([1]; Bias 0.1 V, Reference None) | fraction of events that overflowed the current limit of the amplifier (11 nA) [1, 5] | fraction of retractions that showed large current events [1, 5] | fraction of events that overflowed the current limit of the amplifier (11 nA) ([1]; Bias 0.2 V, Reference None) | fraction of retractions that showed large current events ([1]; Bias 0.2 V, Reference None) | fraction of events that overflowed the current limit of the amplifier (11 nA) [1, 6] | fraction of retractions that showed large current events [1, 6] | fraction of events that overflowed the current limit of the amplifier (11 nA) [1, 7] | fraction of retractions that showed large current events [1, 7] | conductance [1, 8] | peak current [1, 8] | current peak features on probe withdrawal [2] | fluctuating current component ([3]; 1 nM) | signal in nanopore device ([3]; 1 nM solution)
αvβ3: ~200 kD αVβ3 extracelluar domain of human integrin, target protein bound by cyclic RGD peptide | 25% | 0 | 0.07 | 0 | 0.06 | 0.01 | 0.32 | 0.03 | 0.26 | 0.2 | 0.58 | 0.09 | 0.56 | > 0.5 nS | exceed 0.1 nA | many tens of picoamps | about 0.2 nA | 
α4β1: homologous, weakly-binding integrin protein used as a control | 12% |  | 0.01 |  | 0 | 0 | 0.15 | 0 | 0.12 | 0.01 | 0.3 | 0 | 0.24 |  |  |  |  | no signals are generated
